How the values were obtained:
[1] = molecular target: T1, GDP-loaded K-Ras (1-169) C51S, C80L, C118S (Homo sapiens, UniProt P01116, C118S/C51S/C80L); assay: K-Ras WT (GDP) cross-linking assay (conjugate formation, TOF mass spectrometry); assay type: binding; set-up: key: 0: No observed x-linking; +: 0 < x ≤ 20; ++: 20 < x ≤ 40; +++: 40 < x ≤ 100; conditions: Table 5; percent covalently modified K-Ras by MS; room temperature; typical compound conc. 2, 10, 25 μM, endpoints 1 and 24 h
T1 construct: GDP-loaded K-Ras (1-169) C51S, C80L, C118S
Experimental: (§1) Protocol: K-Ras G12D(GDP) Cross-Linking Assay
(§2) Note: while the following protocol outlines the procedure for K-Ras G12D(GDP), a person of skill in the art may substitute other Ras proteins, and may also substitute a non-hydrolyzable GTP analog for GDP to study GTP bound Ras protein.
(§3) GDP-loaded K-Ras (1-169) G12D, C51S, C80L, C118S and GDP-loaded K-Ras (1-169) C51S, C80L, C118S were adjusted to 50 μM in K-Ras assay buffer (12.5 mM HEPES, 75 mM NaCl and 1 mM MgCl2 at pH 7.4). A 5 μL aliquot of each protein solution was added to each well of a 96-well microplate containing 40 μL of assay buffer. Initial compound stocks were prepared in DMSO at 100 times their final assay concentration. Compounds were then diluted 10-fold into K-Ras assay buffer to 10 times their final concentration. A 5 μL aliquot of each diluted compound solution was added to each protein solution in the 96-well microplate to initiate the reaction, which then proceeded at room temperature. Typical final compound concentrations were 2, 10, and 25 μM. At each time point, the reactions were analyzed immediately or quenched with 5 μL of a 5% formic acid solution and kept at 4° C. until analysis. Typical assay endpoints were 1 and 24 h.
(§4) Data collection took place on an Agilent 6230 TOF Mass Spectrometer. Complete reactions were injected onto a C4 reverse-phase column to separate protein from buffer components prior to entering the mass spectrometer. The proteins were eluted from the column by increasing acetonitrile fraction in the mobile phase and fed directly into the mass analyzer. Initial analysis of raw data took place in Agilent MassHunter BioConfirm software and consisted of deconvolution of multiple protein charge states with the maximum entropy algorithm, with a mass step of 1 Da. The heights of all deconvoluted protein masses were exported for further data analysis. The percent modification of each protein was then determined by calculating the peak height of the covalently modified K-Ras species as a percentage of the sum total of K-Ras protein peak height.

[2] = molecular target: T2, GDP-loaded K-Ras (1-169) G12D, C51S, C80L, C118S (Homo sapiens, UniProt P01116, C118S/C51S/C80L/G12D); assay: K-Ras G12D(GDP) cross-linking assay (conjugate formation, TOF mass spectrometry); assay type: binding; set-up: key: 0: No observed x-linking; +: 0 < x ≤ 20; ++: 20 < x ≤ 40; +++: 40 < x ≤ 100; conditions: Table 5; percent covalently modified K-Ras by MS; room temperature; typical compound conc. 2, 10, 25 μM, endpoints 1 and 24 h
T2 construct: GDP-loaded K-Ras (1-169) G12D, C51S, C80L, C118S
Experimental: as §1, §2, §3, §4

Row | Structure (SMILES) | WT x-linking (%) [1] | G12D x-linking (%) [2]
1 | Cc1cccc2cccc(N3CCc4c(nc(OC[C@@H]5CCCN5C)nc4N4CCN(C(=O)[C@H]5CN5Cc5ccccc5)[C@@H](CC#N)C4)C3)c12 (stereo partly drawn) [Example 96, 2-((S)-1-((R)-1-benzylaziridine-2-carbonyl)-4-(7-(8-methylnaphthalen-1-yl)-2-(((S)-1-methylpyrrolidin-2-yl)methoxy)-5,6,7,8-tetrahydropyrido[3,4-d]pyrimidin-4-yl)piperazin-2-yl)acetonitrile] | + (0 < x ≤ 20) | + (0 < x ≤ 20)
2 | Cc1cccc2cccc(N3CCc4c(nc(OC[C@@H]5CCCN5C)nc4N4CCN(C[C@H]5CN5)[C@@H](CC#N)C4)C3)c12 [Example 100, 2-((S)-1-(((R)-aziridin-2-yl)methyl)-4-(7-(8-methylnaphthalen-1-yl)-2-(((S)-1-methylpyrrolidin-2-yl)methoxy)-5,6,7,8-tetrahydropyrido[3,4-d]pyrimidin-4-yl)piperazin-2-yl)acetonitrile] | + (0 < x ≤ 20) | + (0 < x ≤ 20)
3 | COCC1(N=C=N[C@@H]2CCN(c3nc(OC[C@@H]4CCCN4C)nc4c3CCN(c3cccc5cccc(C)c35)C4)C[C@@H]2CC#N)CC1 [Example 153] | + (0 < x ≤ 20) | ++ (20 < x ≤ 40)
4 | Cc1ccnc(C(C)C)c1-n1c(=O)nc(N2C[C@@H](C)N(C(=O)[C@@H]3CN3)C[C@@H]2C)c2cc(F)c(-c3c(O)cccc3F)nc21 [Example 143] | 0 | 0
5 | O=C([C@H]1CN1)N1CCN2c3ncnc4cc(-c5c(O)cccc5F)c(Cl)c(c34)OC[C@@H]2C1 [Example 120, ((R)-aziridin-2-yl)((8aS)-6-chloro-5-(2-fluoro-6-hydroxyphenyl)-8a,9,11,12-tetrahydropyrazino[2′,1′:3,4][1,4]oxazepino[5,6,7-de]quinazolin-10(8H)-yl)methanone] | 0 | 0
6 | Cc1cccc2cccc(N3CCc4c(nc(OC[C@@H]5CCCN5C)nc4N4CCN(C(=O)[C@@H]5CN5Cc5ccccc5)[C@@H](CC#N)C4)C3)c12 (stereo partly drawn) [Example 97, 2-((S)-1-((S)-1-benzylaziridine-2-carbonyl)-4-(7-(8-methylnaphthalen-1-yl)-2-(((S)-1-methylpyrrolidin-2-yl)methoxy)-5,6,7,8-tetrahydropyrido[3,4-d]pyrimidin-4-yl)piperazin-2-yl)acetonitrile] | + (0 < x ≤ 20) | + (0 < x ≤ 20)
7 | C#CCCN1CCC[C@H]1COc1nc2c(c(N3CCN(C(=O)[C@H]4CN4)[C@@H](CC#N)C3)n1)CCN(c1cccc3cccc(C)c13)C2 [Example 116, 2-((S)-1-((R)-aziridine-2-carbonyl)-4-(2-(((S)-1-(but-3-yn-1-yl)pyrrolidin-2-yl)methoxy)-7-(8-methylnaphthalen-1-yl)-6,6,7,8-tetrahydropyrldo[3,4-d]pyrimidin-4-yl)piperazin-2-yl)acetonitrile] | + (0 < x ≤ 20) | + (0 < x ≤ 20)
8 | CO[C@@H]1CCC[C@@H]1N=C=NC1CCN(c2nc(OC[C@@H]3CCCN3C)nc3c2CCN(c2cccc4cccc(C)c24)C3)CC1 (single isomer, unassigned) [Example 149] | + (0 < x ≤ 20) | ++ (20 < x ≤ 40)
9 | COc1ccccc1CN=C=N[C@H]1CCN(c2nc(OC[C@@H]3CCCN3C)nc3c2CCN(c2cccc4cccc(C)c24)C3)C[C@@H]1CC#N [Example 103, 2-((3S,4S)-4-((((2-methoxybenzyl)imino)methylene)amino)-1-(7-(8-methylnaphthalen-1-yl)-2-(((S)-1-methylpyrrolidin-2-yl)methoxy)-5,6,7,8-tetrahydropyrido[3,4-d]pyrimidin-4-yl)piperidin-3-yl)acetonitrile] | + (0 < x ≤ 20) | + (0 < x ≤ 20)
10 | Cc1cccc2cccc(N3CCc4c(nc(OC[C@@H]5CCCN5C)nc4N4CC[C@H](NC(=O)[C@H]5CN5)[C@@H](CC#N)C4)C3)c12 [Example 126] | + (0 < x ≤ 20) | + (0 < x ≤ 20)
11 | CC(=O)N1C[C@H]1C(=O)N1CCN(c2nc(OC[C@@H]3CCCN3C)nc3c2CCN(c2cccc4cccc(C)c24)C3)C[C@@H]1CC#N [Example 99, 2-((S)-1-((S)-1-acetylaziridine-2-carbonyl)-4-(7-(8-methylnaphthaien-1-yl)-2-(((S)-1-methylpyrrolidin-2-yl)methoxy)-5,6,7,8-tetrahydropyrido[3,4-d]pyrimidin-4-yl)piperazin-2-yl)acetonitrile] | + (0 < x ≤ 20) | + (0 < x ≤ 20)
12 | COCCN=C=N[C@H]1CCN(c2nc(OC[C@@H]3CCCN3C)nc3c2CCN(c2cccc4cccc(C)c24)C3)C[C@@H]1CC#N [Example 76, 2-((3S,4S)-4-((((2-methoxyethyl)imino)methylene)amino)-1-(7-(8-methylnaphthalen-1-yl)-2-(((S)-1-methylpyrrolidin-2-yl)methoxy)-5,6,7,8-tetrahydropyrido[3,4-d]pyrimidin-4-yl)piperidin-3-yl)acetonitrile] | ++ (20 < x ≤ 100) | +++ (40 < x ≤ 100)
13 | COCCN1C[C@H]1C(=O)N1CCN(c2nc(OC[C@@H]3CCCN3C)nc3c2CCN(c2cccc4cccc(C)c24)C3)C[C@@H]1CC#N (stereo partly drawn) [Example 106, 2-((S)-1-((S)-1-(2-methoxyethyl)aziridine-2-carbonyl)-4-(7-(8-methylnaphthalen-1-yl)-2-(((S)-1-methylpyrrolidin-2-yl)methoxy)-5,6,7,8-tetrahydropyrido[3,4-d]pyrimidin-4-yl)piperazin-2-yl)acetonitrile] | + (0 < x ≤ 20) | + (0 < x ≤ 20)
14 | O=C([C@@H]1CN1)N1CCN2c3ncnc4cc(-c5c(O)cccc5F)c(Cl)c(c34)OCC[C@@H]2C1 [Example 134] | + (0 < x ≤ 20) | + (0 < x ≤ 20)
15 | Cc1cccc2cccc(N3CCc4c(nc(OC[C@@H]5CCCN5C)nc4N4CC[C@H](NC(=O)C5CN5)C4)C3)c12 (stereo partly shown) [Example 130] | 0 | + (0 < x ≤ 20)
16 | Cc1cccc2cccc(N3CCc4c(nc(OC[C@@H]5CCCN5C)nc4N4CCN(C(=O)[C@@H]5CN5S(C)(=O)=O)[C@@H](CC#N)C4)C3)c12 (stereo partly shown) [Example 132] | + (0 < x ≤ 20) | + (0 < x ≤ 20)
17 | Cc1cccc2cccc(N3CCc4c(nc(OC[C@@H]5CCCN5C)nc4N4CC[C@@H](NC(=O)C5CN5)C4)C3)c12 (stereo partly shown) [Example 129] | 0 | + (0 < x ≤ 20)
18 | CN1CCC[C@H]1COc1nc2c(c(N3CCN(C(=O)[C@H]4CN4)[C@@H](CC#N)C3)n1)CCN(c1cccc3cccc(Cl)c13)C2 [Example 112, 2-((S)-1-((R)-aziridine-2-carbonyl)-4-(7-(8-chloronaphthalen-1-yl)-2-(((S)-1-methylpyrrolidin-2-yl)methoxy)-5,6,7,8-tetrahydropyrido[3,4-d]pyrimidin-4-yl)piperazin-2-yl)acetonitrile] | 0 | ++ (20 < x ≤ 40)
19 | Cc1ccc2[nH]ncc2c1-c1cc2ncnc3c2c(c1Cl)OCC[C@@H]1CN(C(=O)[C@@H]2CN2)CCN31 [Example 123] | 0 | 0
20 | CN1CCC[C@H]1COc1nc2c(c(N3CCN(C(=O)[C@H]4CN4)[C@@H](CC#N)C3)n1)CCN(c1cc(O)cc3ccccc13)C2 [Example 114] | 0 | ++ (20 < x ≤ 40)

— patent US20230100838A1 (Revolution Medicines, Inc., priority 2019, published 2023)
